Assay: recombinant UMI read abundance after kanamycin selection (control-corrected) (log10(CPM+1)); higher = more efficient recombination; extreme values may be limits of the assay; sequences stand for … in AGTGCAGAGAAAATCGGCCAGTTTTCTCTGCCTGCAGTCCGCATGCCGTGGGACCCCTTGGGTTCTAACCTGTTGCCTAGATTTATGCAGCGGACTGCCTTTCTCCCAAAGTGATAAACCGG…AGGTTGGTTTCACT; site = the 11-nt donor
Protocol: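 Pooled E. coli donor-specificity screen for the IS621 bridge recombinase. Each library member carries a reprogrammed 11-nt donor and a full-length LE bridge RNA expressed in cis from the natural promoter, with a paired donor-binding loop (8-nt LDG + 4-nt RDG) and a target-binding loop fixed to T5. It is co-electroporated with a T5 target plasmid; recombinase is induced with 0.07 mM IPTG and recombinants are selected on kanamycin. UMIs are counted as CPM, averaged over two biological replicates and corrected by the unselected control. Molecule = full bridge RNA written as DNA, built from the T5 scaffold: LDG = donor specificity nt 1-8, RDG = reverse complement of nt 8-11.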

Point of comparison: “AAGTCGACATGGACCGGTTTTCCCGGTAATCCGTATTTGGG (site AAGTCGACTCC)”, “recombinant UMI read abundance (log10)” value 0.0303. Against it:
- AAGAACGCATGGACCGGTTTTCCCGGTAATCCGTATTTGGG (site AAGTACGCTCC) — within 0.2 log units, 0.0143
- AAGAAGCCATGGACCGGTTTTCCCGGTAATCCGTATTTGCA (site AAGAAGCCTTG) — higher, 1.32
- AAGAAGCCATGGACCGGTTTTCCCGGTAATCCGTATTTGCA (site AGGAAGACTTG) — within 0.2 log units, 0.00613
- AAGACGACATGGACCGGTTTTCCCGGTAATCCGTATTTGGA (site AAGACGACTTC) — higher, 0.804
- AAGCACCCATGGACCGGTTTTCCCGGTAATCCGTATTTGGG (site AAGCACACTCC) — within 0.2 log units, 0.0118
- AAGCACCCATGGACCGGTTTTCCCGGTAATCCGTATTTGGG (site AAGCACCCTCC) — within 0.2 log units, 0.0505
- AAGCACCCATGGACCGGTTTTCCCGGTAATCCGTATTTGGG (site AAGCACGCTCC) — within 0.2 log units, 0.00747
- AAGCACCCATGGACCGGTTTTCCCGGTAATCCGTATTTGGG (site AAGCACTCTCC) — higher, 0.371
- AAGCAGACATGGACCGGTTTTCCCGGTAATCCGTATTTGGA (site AAGCAGACTTC) — higher, 1.25
- AAGCAGTCATGGACCGGTTTTCCCGGTAATCCGTATTTGAC (site AAGCAGTCTGT) — higher, 2.88
- AAGCATGCATGGACCGGTTTTCCCGGTAATCCGTATTTGGG (site AAGCAAGCTCC) — within 0.2 log units, 0.0205
- AAGCATGCATGGACCGGTTTTCCCGGTAATCCGTATTTGGG (site AAGCACGCTCC) — within 0.2 log units, 0.00447
- AAGCATGCATGGACCGGTTTTCCCGGTAATCCGTATTTGGG (site AAGCAGGCTCC) — within 0.2 log units, 0.0127
- AAGCATGCATGGACCGGTTTTCCCGGTAATCCGTATTTGGG (site AAGCATGCTCC) — higher, 0.297
- AAGCCGCCATGGACCGGTTTTCCCGGTAATCCGTATTTGGC (site AAGCCGCCTGC) — within 0.2 log units, 0
- AAGCCTTCATGGACCGGTTTTCCCGGTAATCCGTATTTGGT (site AAGCCTTCTAC) — higher, 0.585
- AAGCCTTCATGGACCGGTTTTCCCGGTAATCCGTATTTGGT (site CAGCCTTCTAC) — higher, 0.357
- AAGCCTTCATGGACCGGTTTTCCCGGTAATCCGTATTTGGT (site GAGCCTTCTAC) — within 0.2 log units, 0.134
- AAGCCTTCATGGACCGGTTTTCCCGGTAATCCGTATTTGGT (site TAGCCTTCTAC) — within 0.2 log units, 0.12
- AAGCGTCCATGGACCGGTTTTCCCGGTAATCCGTATTTGCG (site AAGCGTCCTCG) — higher, 1.06
- AAGCGTTCATGGACCGGTTTTCCCGGTAATCCGTATTTGTT (site AAGCGTTCTAA) — higher, 1.52
- AAGCTCACATGGACCGGTTTTCCCGGTAATCCGTATTTGAT (site AAGCTCACTAT) — higher, 1.97
- AAGCTCACATGGACCGGTTTTCCCGGTAATCCGTATTTGAT (site CAGCTCACTAT) — higher, 1.5
- AAGCTCACATGGACCGGTTTTCCCGGTAATCCGTATTTGAT (site GAGCTCACTAT) — higher, 0.291
- AAGCTCACATGGACCGGTTTTCCCGGTAATCCGTATTTGAT (site TAGCTCACTAT) — higher, 1.55
- AAGGACCCATGGACCGGTTTTCCCGGTAATCCGTATTTGAA (site AAGGACCCTTT) — higher, 1.1
- AAGGACGCATGGACCGGTTTTCCCGGTAATCCGTATTTGCC (site AAGGACGCTGG) — higher, 2.85
- AAGGAGCCATGGACCGGTTTTCCCGGTAATCCGTATTTGGA (site AAGGAGCCTTC) — within 0.2 log units, 0.02
- AAGGCGACATGGACCGGTTTTCCCGGTAATCCGTATTTGCT (site AAGGCGACTAG) — higher, 2.18
- AAGGGACCATGGACCGGTTTTCCCGGTAATCCGTATTTGGT (site AAGGGACCTAC) — within 0.2 log units, 0.00499
- AAGGGGCCATGGACCGGTTTTCCCGGTAATCCGTATTTGTG (site AAGGGGCCTCA) — within 0.2 log units, 0.00547
- AAGGGTCCATGGACCGGTTTTCCCGGTAATCCGTATTTGAG (site AAGGGTCCTCT) — higher, 0.405
- AAGGTGCCATGGACCGGTTTTCCCGGTAATCCGTATTTGAT (site AAGGTGCCTAT) — higher, 0.438
- AAGTAAGCATGGACCGGTTTTCCCGGTAATCCGTATTTGGA (site AAGTAAGCTTC) — higher, 1.78
- AAGTATGCATGGACCGGTTTTCCCGGTAATCCGTATTTGGA (site AAATATGCTTC) — higher, 0.814
- AAGTATGCATGGACCGGTTTTCCCGGTAATCCGTATTTGGA (site AACTATGCTTC) — higher, 1.43
- AAGTATGCATGGACCGGTTTTCCCGGTAATCCGTATTTGGA (site AAGTATGCTTC) — higher, 1.96
- AAGTATGCATGGACCGGTTTTCCCGGTAATCCGTATTTGGA (site AATTATGCTTC) — higher, 1.04
- AAGTCAACATGGACCGGTTTTCCCGGTAATCCGTATTTGTG (site AAGTCAACTCA) — within 0.2 log units, 0.011
- AAGTCCACATGGACCGGTTTTCCCGGTAATCCGTATTTGCC (site AAGTCCACTGG) — higher, 1.61
- AAGTCCGCATGGACCGGTTTTCCCGGTAATCCGTATTTGAT (site AAGTCCGCTAT) — higher, 1.53
- AAGTCGACATGGACCGGTTTTCCCGGTAATCCGTATTTGGG (site CAGTCGACTCC) — within 0.2 log units, 0.0471
- AAGTCGACATGGACCGGTTTTCCCGGTAATCCGTATTTGGG (site GAGTCGACTCC) — within 0.2 log units, 0.0282
- AAGTCGACATGGACCGGTTTTCCCGGTAATCCGTATTTGGG (site TAGTCGACTCC) — within 0.2 log units, 0.0179
- AAGTCTACATGGACCGGTTTTCCCGGTAATCCGTATTTGTA (site AAGTCTACTTA) — higher, 0.646
- AAGTTCCCATGGACCGGTTTTCCCGGTAATCCGTATTTGTG (site AAGTTCCCTCA) — within 0.2 log units, 0.111
- AAGTTCCCATGGACCGGTTTTCCCGGTAATCCGTATTTGTG (site ACGTTCCCTCA) — within 0.2 log units, 0
- AAGTTCCCATGGACCGGTTTTCCCGGTAATCCGTATTTGTG (site AGGTTCCCTCA) — within 0.2 log units, 0.0112
- AAGTTCCCATGGACCGGTTTTCCCGGTAATCCGTATTTGTG (site ATGTTCCCTCA) — within 0.2 log units, 0.0155
- AAGTTCTCATGGACCGGTTTTCCCGGTAATCCGTATTTGCC (site AAGTTCTCTGG) — higher, 2.31
- AAGTTGGCATGGACCGGTTTTCCCGGTAATCCGTATTTGCA (site AAGTTGGCTTG) — higher, 2.05
- AAGTTTACATGGACCGGTTTTCCCGGTAATCCGTATTTGAC (site AAGTTTACTGT) — higher, 1.97
- AATAAGACATGGACCGGTTTTCCCGGTAATCCGTATTTGAA (site AATAAGACTTT) — higher, 1.86
- AATAGAACATGGACCGGTTTTCCCGGTAATCCGTATTTGAG (site AATAGAACTCT) — higher, 2
- AATAGAACATGGACCGGTTTTCCCGGTAATCCGTATTTGAG (site ACTAGAACTCT) — higher, 1.6
- AATAGAACATGGACCGGTTTTCCCGGTAATCCGTATTTGAG (site AGTAGAACTCT) — higher, 0.412
- AATAGAACATGGACCGGTTTTCCCGGTAATCCGTATTTGAG (site ATTAGAACTCT) — higher, 0.329
- AATAGGACATGGACCGGTTTTCCCGGTAATCCGTATTTGCG (site AATAGGACTCG) — higher, 1.97
- AATAGTGCATGGACCGGTTTTCCCGGTAATCCGTATTTGGT (site AATAGTGCTAC) — higher, 1.23
- AATAGTGCATGGACCGGTTTTCCCGGTAATCCGTATTTGGT (site ACTAGTGCTAC) — higher, 0.687
- AATAGTGCATGGACCGGTTTTCCCGGTAATCCGTATTTGGT (site AGTAGTGCTAC) — higher, 0.602
- AATAGTGCATGGACCGGTTTTCCCGGTAATCCGTATTTGGT (site ATTAGTGCTAC) — higher, 0.53
- AATATAACATGGACCGGTTTTCCCGGTAATCCGTATTTGCT (site AATATAACTAG) — higher, 1.99
- AATATAACATGGACCGGTTTTCCCGGTAATCCGTATTTGCT (site AATCTAACTAG) — higher, 0.615
- AATATAACATGGACCGGTTTTCCCGGTAATCCGTATTTGCT (site AATGTAACTAG) — higher, 1.47
- AATATAACATGGACCGGTTTTCCCGGTAATCCGTATTTGCT (site AATTTAACTAG) — within 0.2 log units, 0.0427
- AATCATGCATGGACCGGTTTTCCCGGTAATCCGTATTTGGA (site AATAATGCTTC) — higher, 0.666
- AATCATGCATGGACCGGTTTTCCCGGTAATCCGTATTTGGA (site AATCATGCTTC) — higher, 0.584
- AATCATGCATGGACCGGTTTTCCCGGTAATCCGTATTTGGA (site AATGATGCTTC) — higher, 0.351
- AATCATGCATGGACCGGTTTTCCCGGTAATCCGTATTTGGA (site AATTATGCTTC) — higher, 0.636
- AATCCATCATGGACCGGTTTTCCCGGTAATCCGTATTTGTA (site AATCCATCTTA) — higher, 1.06

From the supplement of paper PMC11208160
